Experimental data reported in ChEMBL document CHEMBL2203257 (Bioorg Med Chem Lett, 2012).

Assays:
[1] = target: Cyclin-dependent kinase 7 (Homo sapiens, UniProt P50613); assay: Inhibition of CDK7
[2] = target: Dual specificity protein kinase CLK2 (Homo sapiens, UniProt P49760); assay: Inhibition of CLK2
[3] = target: Casein kinase I isoform gamma-3 (Homo sapiens, UniProt Q9Y6M4); assay: Inhibition of CSNK1G3
[4] = target: Eukaryotic translation initiation factor 2-alpha kinase 1 (Homo sapiens, UniProt Q9BQI3); assay: Inhibition of EIF2AK1
[5] = target: Tyrosine-protein kinase FRK (Homo sapiens, UniProt P42685); assay: Inhibition of FRK
[6] = target: Glycogen synthase kinase-3 alpha (Homo sapiens, UniProt P49840); assay: Inhibition of GSK3A
[7] = target: Glycogen synthase kinase-3 beta (Homo sapiens, UniProt P49841); assay: Inhibition of GSK3B
Chain of Glycogen synthase kinase-3 beta (P49841 whole entry): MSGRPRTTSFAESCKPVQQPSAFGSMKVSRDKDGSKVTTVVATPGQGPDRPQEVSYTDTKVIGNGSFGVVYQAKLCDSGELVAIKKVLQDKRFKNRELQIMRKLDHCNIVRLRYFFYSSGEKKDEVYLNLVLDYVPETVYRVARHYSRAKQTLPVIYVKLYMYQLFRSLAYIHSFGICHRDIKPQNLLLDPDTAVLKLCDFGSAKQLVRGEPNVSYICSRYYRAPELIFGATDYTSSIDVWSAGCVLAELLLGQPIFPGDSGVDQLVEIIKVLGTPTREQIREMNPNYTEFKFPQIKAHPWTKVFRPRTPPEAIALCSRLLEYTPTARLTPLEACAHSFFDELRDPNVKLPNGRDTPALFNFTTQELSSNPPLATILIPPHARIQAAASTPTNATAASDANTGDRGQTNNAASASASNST

[8] = target: Tyrosine-protein kinase Lck (Homo sapiens, UniProt P06239); assay: Inhibition of LCK
[9] = target: LIM domain kinase 1 (Homo sapiens, UniProt P53667); assay: Inhibition of LIMK1
[10] = target: Tyrosine-protein kinase Lyn (Homo sapiens, UniProt P07948); assay: Inhibition of LYN
[11] = target: Mitogen-activated protein kinase kinase kinase 1 (Homo sapiens, UniProt Q13233); assay: Inhibition of MAP3K1
[12] = target: Mitogen-activated protein kinase kinase kinase 5 (Homo sapiens, UniProt Q99683); assay: Inhibition of MAP3K5
[13] = target: Mitogen-activated protein kinase kinase kinase kinase 1 (Homo sapiens, UniProt Q92918); assay: Inhibition of MAP4K1
Chain of Mitogen-activated protein kinase kinase kinase kinase 1 (Q92918 whole entry): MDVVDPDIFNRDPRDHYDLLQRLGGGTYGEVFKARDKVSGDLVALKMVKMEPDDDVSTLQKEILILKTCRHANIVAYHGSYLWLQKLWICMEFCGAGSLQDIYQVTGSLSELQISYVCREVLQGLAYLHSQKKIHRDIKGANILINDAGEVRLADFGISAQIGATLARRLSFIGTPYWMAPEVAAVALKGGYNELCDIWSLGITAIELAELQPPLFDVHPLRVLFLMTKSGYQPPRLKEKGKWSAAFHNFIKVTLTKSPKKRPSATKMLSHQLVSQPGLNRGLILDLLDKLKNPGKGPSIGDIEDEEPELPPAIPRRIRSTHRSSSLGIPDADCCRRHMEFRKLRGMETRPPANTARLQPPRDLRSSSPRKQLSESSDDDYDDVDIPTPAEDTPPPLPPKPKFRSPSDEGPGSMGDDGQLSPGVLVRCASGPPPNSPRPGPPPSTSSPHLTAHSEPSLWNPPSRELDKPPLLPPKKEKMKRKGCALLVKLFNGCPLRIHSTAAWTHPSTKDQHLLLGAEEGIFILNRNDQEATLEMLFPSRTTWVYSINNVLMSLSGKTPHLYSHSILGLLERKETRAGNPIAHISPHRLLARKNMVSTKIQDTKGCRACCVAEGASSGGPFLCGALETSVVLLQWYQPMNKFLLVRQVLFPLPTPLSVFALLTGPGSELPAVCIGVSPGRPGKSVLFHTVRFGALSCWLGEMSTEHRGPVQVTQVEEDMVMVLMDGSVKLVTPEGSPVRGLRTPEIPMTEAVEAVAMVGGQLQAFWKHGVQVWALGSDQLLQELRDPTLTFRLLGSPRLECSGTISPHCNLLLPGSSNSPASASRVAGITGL

[14] = target: Mitogen-activated protein kinase kinase kinase kinase 2 (Homo sapiens, UniProt Q12851); assay: Inhibition of MAP4K2
[15] = target: Mitogen-activated protein kinase 8 (Homo sapiens, UniProt P45983); assay: Inhibition of MAPK8
[16] = target: Serine/threonine-protein kinase Nek2 (Homo sapiens, UniProt P51955); assay: Inhibition of NEK2
[17] = target: Phosphatidylinositol 3-kinase catalytic subunit type 3 (Homo sapiens, UniProt Q8NEB9); assay: Inhibition of PIK3C3
[18] = target: T1, Phosphatidylinositol 4,5-bisphosphate 3-kinase catalytic subunit delta isoform (Homo sapiens, UniProt O00329); assay: Inhibition of PIK3Cd
T1 sequence (O00329 whole entry): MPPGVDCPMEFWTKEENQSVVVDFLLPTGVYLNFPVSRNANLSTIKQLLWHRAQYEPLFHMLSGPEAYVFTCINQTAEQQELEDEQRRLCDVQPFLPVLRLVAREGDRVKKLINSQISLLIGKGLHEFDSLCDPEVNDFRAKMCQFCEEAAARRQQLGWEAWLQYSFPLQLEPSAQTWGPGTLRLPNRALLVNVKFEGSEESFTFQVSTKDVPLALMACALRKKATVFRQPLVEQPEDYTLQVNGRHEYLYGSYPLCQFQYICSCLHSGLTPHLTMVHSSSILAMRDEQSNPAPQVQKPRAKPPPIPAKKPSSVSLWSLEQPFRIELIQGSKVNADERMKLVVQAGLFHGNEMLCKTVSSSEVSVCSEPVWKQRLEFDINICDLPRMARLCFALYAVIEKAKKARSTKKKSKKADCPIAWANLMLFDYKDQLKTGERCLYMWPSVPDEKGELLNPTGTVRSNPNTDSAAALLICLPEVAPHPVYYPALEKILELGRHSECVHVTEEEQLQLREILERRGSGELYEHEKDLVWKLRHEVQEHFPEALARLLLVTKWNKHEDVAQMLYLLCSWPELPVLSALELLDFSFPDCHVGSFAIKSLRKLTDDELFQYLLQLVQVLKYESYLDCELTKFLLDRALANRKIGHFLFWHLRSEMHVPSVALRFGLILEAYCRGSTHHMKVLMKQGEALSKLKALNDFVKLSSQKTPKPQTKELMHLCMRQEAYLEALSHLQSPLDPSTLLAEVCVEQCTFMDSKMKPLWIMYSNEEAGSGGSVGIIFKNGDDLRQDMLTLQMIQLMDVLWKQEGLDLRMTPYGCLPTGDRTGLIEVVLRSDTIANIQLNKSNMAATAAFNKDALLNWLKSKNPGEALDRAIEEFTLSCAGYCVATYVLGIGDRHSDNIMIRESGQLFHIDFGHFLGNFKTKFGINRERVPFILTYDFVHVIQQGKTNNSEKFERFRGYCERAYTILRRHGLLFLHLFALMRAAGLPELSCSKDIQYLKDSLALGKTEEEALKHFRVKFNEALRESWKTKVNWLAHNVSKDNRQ

[19] = target: Phosphoinositide 3-kinase regulatory subunit 4 (Homo sapiens, UniProt Q99570); assay: Inhibition of PIK3R4
[20] = target: Phosphatidylinositol 5-phosphate 4-kinase type-2 gamma (Homo sapiens, UniProt Q8TBX8); assay: Inhibition of PIP4K2C
[21] = target: Serine/threonine-protein kinase PLK4 (Homo sapiens, UniProt O00444); assay: Inhibition of PLK4
[22] = target: 5'-AMP-activated protein kinase catalytic subunit alpha-2 (Homo sapiens, UniProt P54646); assay: Inhibition of PRKAA2
Chain of 5'-AMP-activated protein kinase catalytic subunit alpha-2 (P54646 whole entry): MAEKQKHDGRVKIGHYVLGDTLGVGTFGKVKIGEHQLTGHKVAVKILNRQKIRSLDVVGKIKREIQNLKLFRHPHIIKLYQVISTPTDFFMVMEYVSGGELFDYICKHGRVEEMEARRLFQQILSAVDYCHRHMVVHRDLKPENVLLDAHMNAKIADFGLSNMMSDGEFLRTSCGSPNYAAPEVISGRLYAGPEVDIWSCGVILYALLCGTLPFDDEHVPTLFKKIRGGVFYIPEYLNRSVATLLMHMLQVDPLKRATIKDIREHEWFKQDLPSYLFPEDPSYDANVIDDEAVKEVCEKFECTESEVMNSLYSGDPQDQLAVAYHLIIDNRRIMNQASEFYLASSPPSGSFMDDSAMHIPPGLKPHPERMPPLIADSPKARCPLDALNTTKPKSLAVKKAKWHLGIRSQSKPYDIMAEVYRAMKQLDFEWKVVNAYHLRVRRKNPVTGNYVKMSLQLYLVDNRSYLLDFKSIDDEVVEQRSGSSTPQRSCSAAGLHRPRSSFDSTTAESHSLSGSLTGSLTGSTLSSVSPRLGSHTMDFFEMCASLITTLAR

[23] = target: Protein kinase C alpha type (Homo sapiens, UniProt P17252); assay: Inhibition of PRKCA
[24] = target: Protein kinase C delta type (Homo sapiens, UniProt Q05655); assay: Inhibition of PRKCD
[25] = target: Ribosomal protein S6 kinase alpha-5 (Homo sapiens, UniProt O75582); assay: Inhibition of RPS6KA5
[26] = target: Proto-oncogene tyrosine-protein kinase Src (Homo sapiens, UniProt P12931); assay: Inhibition of SRC
[27] = target: Serine/threonine-protein kinase 4 (Homo sapiens, UniProt Q13043); assay: Inhibition of STK4
[28] = target: Tyrosine-protein kinase SYK (Homo sapiens, UniProt P43405); assay: Inhibition of SYK
[29] = target: Serine/threonine-protein kinase TAO2 (Homo sapiens, UniProt Q9UL54); assay: Inhibition of TAOK2
Chain of Serine/threonine-protein kinase TAO2 (Q9UL54 whole entry): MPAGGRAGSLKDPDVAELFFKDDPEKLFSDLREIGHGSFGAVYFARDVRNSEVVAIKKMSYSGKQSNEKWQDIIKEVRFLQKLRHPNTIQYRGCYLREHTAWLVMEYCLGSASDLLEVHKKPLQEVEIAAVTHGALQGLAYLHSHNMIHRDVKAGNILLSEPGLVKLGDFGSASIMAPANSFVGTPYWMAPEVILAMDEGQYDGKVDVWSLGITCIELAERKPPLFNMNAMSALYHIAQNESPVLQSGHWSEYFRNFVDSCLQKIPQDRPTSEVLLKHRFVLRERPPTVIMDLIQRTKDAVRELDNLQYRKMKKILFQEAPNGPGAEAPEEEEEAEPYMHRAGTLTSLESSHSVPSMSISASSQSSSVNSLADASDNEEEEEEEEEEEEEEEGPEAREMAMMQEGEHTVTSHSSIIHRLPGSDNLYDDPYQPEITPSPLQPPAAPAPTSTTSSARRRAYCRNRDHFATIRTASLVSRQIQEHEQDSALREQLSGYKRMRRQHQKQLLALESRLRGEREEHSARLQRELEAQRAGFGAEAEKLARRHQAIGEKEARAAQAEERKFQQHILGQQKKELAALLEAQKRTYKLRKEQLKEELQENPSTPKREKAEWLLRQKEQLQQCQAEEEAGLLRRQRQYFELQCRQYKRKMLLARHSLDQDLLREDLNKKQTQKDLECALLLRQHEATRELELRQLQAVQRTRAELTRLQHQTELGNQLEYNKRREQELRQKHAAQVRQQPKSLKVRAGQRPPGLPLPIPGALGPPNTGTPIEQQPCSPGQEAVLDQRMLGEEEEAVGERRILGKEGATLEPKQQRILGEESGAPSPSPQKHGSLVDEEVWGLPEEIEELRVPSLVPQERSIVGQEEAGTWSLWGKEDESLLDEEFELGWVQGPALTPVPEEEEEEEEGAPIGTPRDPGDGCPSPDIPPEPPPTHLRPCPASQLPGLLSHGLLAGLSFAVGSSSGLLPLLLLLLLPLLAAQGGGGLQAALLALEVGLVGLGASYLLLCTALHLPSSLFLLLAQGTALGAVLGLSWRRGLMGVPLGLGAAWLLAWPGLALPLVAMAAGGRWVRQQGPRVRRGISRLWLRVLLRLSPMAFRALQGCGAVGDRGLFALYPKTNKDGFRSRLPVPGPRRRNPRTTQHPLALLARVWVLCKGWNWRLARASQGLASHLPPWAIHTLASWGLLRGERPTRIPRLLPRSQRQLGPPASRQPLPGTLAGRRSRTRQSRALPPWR

[30] = target: Serine/threonine-protein kinase ULK3 (Homo sapiens, UniProt Q6PHR2); assay: Inhibition of ULK3
[31] = target: Phosphatidylinositol 4,5-bisphosphate 3-kinase catalytic subunit gamma isoform (Homo sapiens, UniProt P48736); assay: Inhibition of PI3Kgamma by kinobeads assay
[32] = Half life in rat […] at 5 mg/kg, po; 1 mg/kg, iv; type: ADME, organism-based
[33] = Cmax in rat […] at 5 mg/kg, po; 1 mg/kg, iv; type: ADME, organism-based
[34] = system: Mus musculus; assay: Antiarthritic activity against collagen-induced arthritis mouse model assessed as mean clinical arthritis score with AUC calculation in at 0.01 mg/kg, po BID for 14 days; type: functional
[35] = target: Activin receptor type-2B (Homo sapiens, UniProt Q13705); assay: Inhibition of ACVR2B
Chain of Activin receptor type-2B (Q13705 whole entry): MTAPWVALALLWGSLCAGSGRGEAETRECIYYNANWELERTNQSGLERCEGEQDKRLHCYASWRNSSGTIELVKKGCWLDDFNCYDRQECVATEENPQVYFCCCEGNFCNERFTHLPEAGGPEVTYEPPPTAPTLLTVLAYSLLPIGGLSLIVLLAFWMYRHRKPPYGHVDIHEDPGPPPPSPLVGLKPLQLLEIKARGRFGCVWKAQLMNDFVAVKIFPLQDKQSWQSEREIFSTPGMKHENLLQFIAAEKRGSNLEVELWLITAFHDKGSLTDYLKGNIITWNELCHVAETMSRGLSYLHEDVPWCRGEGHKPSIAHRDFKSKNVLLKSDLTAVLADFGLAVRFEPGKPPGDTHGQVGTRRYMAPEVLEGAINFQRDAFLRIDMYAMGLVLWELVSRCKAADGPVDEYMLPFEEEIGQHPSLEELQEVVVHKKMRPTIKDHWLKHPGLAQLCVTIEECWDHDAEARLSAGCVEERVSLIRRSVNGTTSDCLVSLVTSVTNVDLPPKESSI

[36] = target: Aurora kinase A (Homo sapiens, UniProt O14965); assay: Inhibition of AURKA
[37] = target: Bromodomain-containing protein 3 (Homo sapiens, UniProt Q15059); assay: Inhibition of BRD3
Chain of Bromodomain-containing protein 3 (Q15059 whole entry): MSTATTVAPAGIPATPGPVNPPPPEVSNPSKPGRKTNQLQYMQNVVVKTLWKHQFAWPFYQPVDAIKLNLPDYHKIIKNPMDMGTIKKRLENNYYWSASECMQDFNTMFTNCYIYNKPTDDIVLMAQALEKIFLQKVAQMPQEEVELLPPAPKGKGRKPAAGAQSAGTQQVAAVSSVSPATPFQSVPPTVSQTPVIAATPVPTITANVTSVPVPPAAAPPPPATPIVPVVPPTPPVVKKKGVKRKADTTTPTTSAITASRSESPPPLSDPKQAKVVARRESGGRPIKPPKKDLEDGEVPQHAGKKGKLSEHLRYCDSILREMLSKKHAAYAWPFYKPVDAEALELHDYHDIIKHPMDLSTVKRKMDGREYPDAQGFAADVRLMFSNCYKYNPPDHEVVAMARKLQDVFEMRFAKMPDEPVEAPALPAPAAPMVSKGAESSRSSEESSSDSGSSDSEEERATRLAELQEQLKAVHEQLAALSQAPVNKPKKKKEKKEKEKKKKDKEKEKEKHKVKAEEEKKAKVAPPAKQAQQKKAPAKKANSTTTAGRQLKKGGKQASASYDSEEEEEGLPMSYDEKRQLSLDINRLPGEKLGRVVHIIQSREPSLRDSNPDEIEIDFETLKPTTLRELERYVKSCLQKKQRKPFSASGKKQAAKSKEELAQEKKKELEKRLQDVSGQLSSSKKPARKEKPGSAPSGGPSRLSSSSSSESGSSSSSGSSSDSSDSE

Chain of Dual specificity protein kinase CLK2 (P49760 whole entry, canonical isoform): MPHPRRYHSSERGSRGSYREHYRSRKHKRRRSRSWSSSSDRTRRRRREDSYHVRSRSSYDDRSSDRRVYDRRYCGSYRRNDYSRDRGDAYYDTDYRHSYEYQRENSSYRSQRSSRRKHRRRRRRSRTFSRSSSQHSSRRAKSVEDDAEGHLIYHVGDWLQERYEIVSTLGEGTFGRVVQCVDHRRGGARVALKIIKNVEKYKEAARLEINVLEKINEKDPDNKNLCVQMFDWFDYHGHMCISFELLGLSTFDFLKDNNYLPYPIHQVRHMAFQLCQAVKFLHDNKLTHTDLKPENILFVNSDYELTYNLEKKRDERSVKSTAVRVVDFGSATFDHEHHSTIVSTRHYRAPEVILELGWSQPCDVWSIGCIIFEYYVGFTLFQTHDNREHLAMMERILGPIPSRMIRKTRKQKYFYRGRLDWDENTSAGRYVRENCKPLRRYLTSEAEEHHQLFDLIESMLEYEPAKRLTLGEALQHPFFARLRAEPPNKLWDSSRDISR

CC(C)(C)NS(=O)(=O)c1cncc(-c2ccn3nc(N)nc3c2)c1
IC50 [1]: > 10 µM
IC50 [2]: > 10 µM
IC50 [3]: > 10 µM
IC50 [4]: > 10 µM
IC50 [5]: > 10 µM
IC50 [6]: > 10 µM
IC50 [7]: > 10 µM
IC50 [8]: > 10 µM
IC50 [9]: > 10 µM
IC50 [10]: > 10 µM
IC50 [11]: > 10 µM
IC50 [12]: > 10 µM
IC50 [13]: > 10 µM
IC50 [14]: > 10 µM
IC50 [15]: > 10 µM
IC50 [16]: > 10 µM
IC50 [17]: > 5.89 µM
IC50 [18]: 0.708 µM
IC50 [19]: > 10 µM
IC50 [20]: 1.07 µM
IC50 [21]: > 10 µM
IC50 [22]: > 10 µM
IC50 [23]: > 10 µM
IC50 [24]: > 10 µM
IC50 [25]: > 10 µM
IC50 [26]: > 10 µM
IC50 [27]: > 10 µM
IC50 [28]: > 10 µM
IC50 [29]: > 10 µM
IC50 [30]: > 10 µM
IC50 [31]: 0.0126 µM
half-life [32]: 1.2 h
Cmax [33]: 5.9 µM
Activity [34]: 94%
IC50 [35]: > 10 µM
IC50 [36]: > 10 µM
IC50 [37]: > 10 µM
